In patent publication US9403801B2 (Calitor Sciences, LLC, priority 2014, dated 2016):

How the values were obtained:
TYK2 (h) = TYK2 (h) (Homo sapiens (Human), UniProt P29597); test: TYK2 kinase assay (33P-ATP filter binding, Millipore); type: biochemical
Method: (§1) Kinase assays can be performed by measurement of incorporation of γ-^33P ATP into immobilized myelin basic protein (MBP). High binding white 384 well plates (Greiner) are coated with MBP (Sigma #M−1891) by incubation of 60 μL/well of 20 μg/mL MBP in Tris-buffered saline (TBS; 50 mM Tris pH 8.0, 138 mM NaCl, 2.7 mM KCl) for 24 h at 4° C. Plates are washed 3× with 100 μL TBS. Kinase reactions are carried out in a total volume of 34 μL in kinase buffer (5 mM Hepes pH 7.6, 15 mM NaCl, 0.01% bovine gamma globulin (Sigma #I-5506), 10 mM MgCl2, 1 mM DTT, 0.02% TritonX-100). Compound dilutions are performed in DMSO and added to assay wells to a final DMSO concentration of 1%. Each data point is measured in duplicate, and at least two duplicate assays are performed for each individual compound determination. Enzyme is added to final concentrations of 10 nM or 20 nM, for example. A mixture of unlabeled ATP and γ-^33P ATP is added to start the reaction (2×10^6 cpm of γ-^33P ATP per well (3000 Ci/mmole) and 10 μM unlabeled ATP, typically. The reactions are carried out for 1 h at room temperature with shaking. Plates are washed 7× with TBS, followed by the addition of 50 μL/well scintillation fluid (Wallac). Plates are read using a Wallac Trilux counter. This is only one format of such assays; various other formats are possible, as known to one skilled in the art.
(§2) The above assay procedure can be used to determine the IC50 for inhibition and/or the inhibition constant, Ki. The IC50 is defined as the concentration of compound required to reduce the enzyme activity by 50% under the condition of the assay. The IC50 value is estimated by preparing a 10 point curve using a 1/2 log dilution series (for example, a typical curve may be prepared using the following compound concentrations: 3 μM, 1 μM, 0.3 μM, 0.1 μM, 0.03 μM, 0.01 μM, 0.003 μM, 0.001 μM, 0.0003 μM and 0 μM).
(§3) The kinase assays described herein were performed at Millipore UK Ltd, Dundee Technology Park, Dundee DD2 1SW, UK.

JAK1 (h) = JAK1 (h) (Homo sapiens (Human), UniProt P23458); test: JAK1 kinase assay (33P-ATP filter binding, Millipore); type: biochemical
Procedure, shortened: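 Radiometric assay of γ-33P-ATP incorporation into plate-immobilised MBP; kinase buffer pH 7.6 with 10 mM MgCl2, 10 μM unlabelled ATP typical, enzyme 10 or 20 nM final, 1% DMSO. Reactions ran 1 h at room temperature before scintillation counting. IC50 from 10-point half-log dilution curve, duplicates.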

JAK2 (h) = JAK2 (h) (Homo sapiens (Human), UniProt O60674); test: JAK2 kinase assay (33P-ATP filter binding, Millipore); type: biochemical
Method: as §1, §2, §3

[1] = Compound stability in rat liver microsomes; type: in vitro ADME
Procedure, shortened: (§4)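 Each compound is tested in duplicate at 5 μM with 0.5 mg/mL microsomal protein plus 1.0 mM NADPH at 37° C, pH 7.4. Depletion over 60 min is followed by LC/MS/MS relative to time zero. CLint is derived by extrapolation.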

[2] = Compound stability in human liver microsomes; type: in vitro ADME; settings: for half-life at 5 μM: compound 5 μM, NADPH 1.0 mM, 37° C.; for CLint scaled at 5 μM: in vivo CLint extrapolated
Procedure, shortened: as §4

JAK3 (h) = JAK3 (h) (Homo sapiens (Human), UniProt P52333); test: JAK3 kinase assay (33P-ATP filter binding, Millipore); type: biochemical
Method: as §1, §2, §3

[3] = Pharmacokinetics after intravenous and oral administration in rats; type: in vivo; settings: for Clearance (CL) after iv dosing / AUC(0-t) / half-life / Vd: dose 1 mg/kg (Ex. 27: 0.72 mg/kg), iv dosing; for F: oral bioavailability; for AUC(0-t) / half-life / Vd: rat, plasma; for Vd: read-out: Vss
Procedure, shortened: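 Rats were dosed 1 or 2 mg/kg IV or 5 or 10 mg/kg orally, as water solution, HPMC/Tween 80, DMSO/saline, MC suspension or capsule. Plasma was sampled from 0.083 or 0.25 h up to 24 h and quantified by LC/MS/MS in MRM mode with ESI.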

FLT3 (h) = FLT3 (h) (Homo sapiens (Human), UniProt P36888); test: FLT3 kinase assay (33P-ATP filter binding, Millipore); type: biochemical
Method: as §1, with “art. […]” for “art.”

Aurora-A (h) = Aurora-A (h) (Homo sapiens (Human), UniProt O14965); test: Aurora-A kinase assay (33P-ATP filter binding, Millipore); type: biochemical
Method: as §1, with “art. […]” for “art.”

[4] = human, liver microsomes, pH 7.4, Human liver microsomes 0.5 mg protein/mL
[5] = human, liver microsomes, pH 7.4, Human liver microsomes
[6] = pH 7.4, Rat liver microsomes 0.5 mg protein/mL, compound 5 μM, NADPH 1.0 mM, 37° C.
[7] = pH 7.4, Rat liver microsomes, in vivo CLint extrapolated
[8] = pH 7.4, Human liver microsomes 0.5 mg protein/mL

TYK2 (h), sequence (P29597 whole entry): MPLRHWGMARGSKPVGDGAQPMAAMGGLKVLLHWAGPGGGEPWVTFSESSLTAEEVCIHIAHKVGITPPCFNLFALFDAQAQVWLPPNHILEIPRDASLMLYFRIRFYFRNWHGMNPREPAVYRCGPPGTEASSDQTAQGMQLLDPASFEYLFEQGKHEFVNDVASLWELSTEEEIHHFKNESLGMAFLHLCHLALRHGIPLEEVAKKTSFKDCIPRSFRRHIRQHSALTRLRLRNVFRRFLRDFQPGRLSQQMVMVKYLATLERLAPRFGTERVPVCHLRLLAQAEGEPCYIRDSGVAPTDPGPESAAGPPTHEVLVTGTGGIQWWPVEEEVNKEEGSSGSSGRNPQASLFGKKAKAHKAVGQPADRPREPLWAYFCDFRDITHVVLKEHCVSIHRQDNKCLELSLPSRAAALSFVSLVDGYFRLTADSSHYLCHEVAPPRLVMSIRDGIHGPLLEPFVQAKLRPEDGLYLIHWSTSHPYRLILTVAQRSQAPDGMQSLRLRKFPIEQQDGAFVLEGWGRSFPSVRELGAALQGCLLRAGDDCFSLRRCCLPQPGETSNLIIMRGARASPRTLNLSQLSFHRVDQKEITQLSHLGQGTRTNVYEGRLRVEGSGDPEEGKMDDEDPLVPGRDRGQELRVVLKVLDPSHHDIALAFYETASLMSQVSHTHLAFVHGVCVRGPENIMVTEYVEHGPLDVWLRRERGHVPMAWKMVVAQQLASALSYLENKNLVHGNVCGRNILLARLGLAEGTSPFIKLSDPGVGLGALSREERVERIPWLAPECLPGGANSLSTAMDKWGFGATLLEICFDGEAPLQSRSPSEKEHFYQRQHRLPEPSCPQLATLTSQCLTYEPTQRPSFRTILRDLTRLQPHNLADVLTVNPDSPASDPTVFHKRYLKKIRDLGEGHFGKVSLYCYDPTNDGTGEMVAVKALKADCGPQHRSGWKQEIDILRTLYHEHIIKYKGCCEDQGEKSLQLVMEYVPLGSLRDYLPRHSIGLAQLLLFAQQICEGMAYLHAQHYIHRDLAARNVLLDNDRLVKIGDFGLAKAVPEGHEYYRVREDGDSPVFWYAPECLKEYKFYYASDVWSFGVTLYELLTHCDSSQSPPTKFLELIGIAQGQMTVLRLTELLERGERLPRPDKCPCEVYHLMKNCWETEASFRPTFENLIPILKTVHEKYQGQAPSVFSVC
JAK3 (h), sequence (P52333 whole entry): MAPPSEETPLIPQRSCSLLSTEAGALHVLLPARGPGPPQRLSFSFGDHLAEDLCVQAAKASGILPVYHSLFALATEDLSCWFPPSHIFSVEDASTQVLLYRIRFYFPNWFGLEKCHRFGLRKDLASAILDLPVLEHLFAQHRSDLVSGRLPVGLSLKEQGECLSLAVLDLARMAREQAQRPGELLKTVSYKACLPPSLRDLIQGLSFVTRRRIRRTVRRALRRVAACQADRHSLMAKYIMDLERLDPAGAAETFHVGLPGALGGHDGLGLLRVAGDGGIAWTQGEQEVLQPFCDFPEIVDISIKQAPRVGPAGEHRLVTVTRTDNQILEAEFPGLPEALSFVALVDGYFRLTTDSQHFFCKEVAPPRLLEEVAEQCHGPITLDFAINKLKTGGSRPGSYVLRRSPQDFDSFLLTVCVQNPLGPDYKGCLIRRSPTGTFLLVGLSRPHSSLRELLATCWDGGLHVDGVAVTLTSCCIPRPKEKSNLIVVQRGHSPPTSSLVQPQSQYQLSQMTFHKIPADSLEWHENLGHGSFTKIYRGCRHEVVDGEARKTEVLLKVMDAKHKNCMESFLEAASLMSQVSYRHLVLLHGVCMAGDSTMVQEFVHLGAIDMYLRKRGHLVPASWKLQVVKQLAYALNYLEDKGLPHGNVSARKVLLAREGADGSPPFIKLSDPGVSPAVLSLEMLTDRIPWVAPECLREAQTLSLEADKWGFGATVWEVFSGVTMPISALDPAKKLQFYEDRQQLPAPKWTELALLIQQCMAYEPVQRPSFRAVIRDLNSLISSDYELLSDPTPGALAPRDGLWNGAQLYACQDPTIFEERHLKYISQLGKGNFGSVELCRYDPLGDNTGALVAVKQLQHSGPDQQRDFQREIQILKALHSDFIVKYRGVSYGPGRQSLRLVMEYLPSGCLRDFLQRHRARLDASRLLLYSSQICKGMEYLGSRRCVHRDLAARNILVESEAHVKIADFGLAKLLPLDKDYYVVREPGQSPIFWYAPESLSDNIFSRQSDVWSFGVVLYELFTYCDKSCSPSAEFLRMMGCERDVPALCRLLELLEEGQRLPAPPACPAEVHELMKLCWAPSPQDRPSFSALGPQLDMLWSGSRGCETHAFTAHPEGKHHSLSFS
JAK2 (h), sequence (O60674 whole entry): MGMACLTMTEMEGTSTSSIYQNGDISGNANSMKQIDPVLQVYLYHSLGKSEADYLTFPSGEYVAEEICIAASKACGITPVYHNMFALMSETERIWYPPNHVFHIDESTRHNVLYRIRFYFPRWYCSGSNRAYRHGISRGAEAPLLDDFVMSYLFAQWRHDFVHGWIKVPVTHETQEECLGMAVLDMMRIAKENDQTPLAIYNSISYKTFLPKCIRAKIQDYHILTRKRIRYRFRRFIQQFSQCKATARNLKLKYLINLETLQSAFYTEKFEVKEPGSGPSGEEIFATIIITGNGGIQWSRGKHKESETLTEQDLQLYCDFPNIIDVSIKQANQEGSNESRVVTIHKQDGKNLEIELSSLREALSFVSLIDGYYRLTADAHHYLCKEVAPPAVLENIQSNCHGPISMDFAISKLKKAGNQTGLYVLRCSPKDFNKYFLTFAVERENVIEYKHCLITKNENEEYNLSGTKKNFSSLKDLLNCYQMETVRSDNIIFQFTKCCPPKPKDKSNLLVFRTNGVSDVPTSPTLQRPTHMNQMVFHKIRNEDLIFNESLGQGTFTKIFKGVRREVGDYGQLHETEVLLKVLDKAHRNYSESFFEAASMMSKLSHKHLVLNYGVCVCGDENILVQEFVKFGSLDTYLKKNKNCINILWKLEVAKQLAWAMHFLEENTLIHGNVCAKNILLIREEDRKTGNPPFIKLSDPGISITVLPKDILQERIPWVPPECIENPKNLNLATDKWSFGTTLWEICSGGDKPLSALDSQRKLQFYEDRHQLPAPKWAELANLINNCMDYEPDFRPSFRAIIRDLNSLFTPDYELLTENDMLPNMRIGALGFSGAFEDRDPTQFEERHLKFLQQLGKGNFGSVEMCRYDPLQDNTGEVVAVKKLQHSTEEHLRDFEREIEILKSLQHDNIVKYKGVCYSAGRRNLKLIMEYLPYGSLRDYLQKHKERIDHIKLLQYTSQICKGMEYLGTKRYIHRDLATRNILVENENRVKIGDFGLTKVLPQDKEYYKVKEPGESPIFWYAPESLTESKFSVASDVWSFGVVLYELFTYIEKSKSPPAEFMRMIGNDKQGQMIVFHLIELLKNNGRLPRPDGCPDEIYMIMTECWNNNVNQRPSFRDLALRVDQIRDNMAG
JAK1 (h), sequence (P23458 whole entry): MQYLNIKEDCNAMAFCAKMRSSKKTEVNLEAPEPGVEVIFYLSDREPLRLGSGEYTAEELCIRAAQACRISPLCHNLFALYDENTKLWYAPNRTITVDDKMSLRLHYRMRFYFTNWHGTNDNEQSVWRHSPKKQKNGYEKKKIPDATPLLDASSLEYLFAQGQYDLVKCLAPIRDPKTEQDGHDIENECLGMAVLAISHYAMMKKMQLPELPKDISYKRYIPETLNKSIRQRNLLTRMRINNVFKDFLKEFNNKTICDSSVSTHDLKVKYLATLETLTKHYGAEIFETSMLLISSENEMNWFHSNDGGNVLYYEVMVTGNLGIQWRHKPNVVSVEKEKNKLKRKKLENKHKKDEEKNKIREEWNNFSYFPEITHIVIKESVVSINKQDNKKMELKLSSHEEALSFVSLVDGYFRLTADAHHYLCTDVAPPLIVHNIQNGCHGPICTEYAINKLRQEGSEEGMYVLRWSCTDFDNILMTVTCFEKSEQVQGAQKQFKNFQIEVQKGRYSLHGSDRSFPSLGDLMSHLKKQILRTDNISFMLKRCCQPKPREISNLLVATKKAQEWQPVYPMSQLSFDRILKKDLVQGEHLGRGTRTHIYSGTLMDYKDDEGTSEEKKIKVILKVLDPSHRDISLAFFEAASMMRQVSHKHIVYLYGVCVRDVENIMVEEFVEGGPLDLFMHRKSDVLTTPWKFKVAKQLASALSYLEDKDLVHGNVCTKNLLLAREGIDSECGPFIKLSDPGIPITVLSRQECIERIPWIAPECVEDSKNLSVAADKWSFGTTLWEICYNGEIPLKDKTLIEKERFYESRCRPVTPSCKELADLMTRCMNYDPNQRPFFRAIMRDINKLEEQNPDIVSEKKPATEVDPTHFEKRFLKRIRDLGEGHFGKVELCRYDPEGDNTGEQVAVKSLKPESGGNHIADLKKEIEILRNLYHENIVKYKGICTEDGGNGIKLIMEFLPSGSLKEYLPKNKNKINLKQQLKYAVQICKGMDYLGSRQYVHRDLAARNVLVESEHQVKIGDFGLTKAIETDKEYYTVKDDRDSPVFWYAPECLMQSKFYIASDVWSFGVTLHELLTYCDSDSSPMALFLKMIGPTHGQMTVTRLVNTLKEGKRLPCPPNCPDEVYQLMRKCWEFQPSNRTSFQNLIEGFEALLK
Aurora-A (h), sequence (O14965 whole entry): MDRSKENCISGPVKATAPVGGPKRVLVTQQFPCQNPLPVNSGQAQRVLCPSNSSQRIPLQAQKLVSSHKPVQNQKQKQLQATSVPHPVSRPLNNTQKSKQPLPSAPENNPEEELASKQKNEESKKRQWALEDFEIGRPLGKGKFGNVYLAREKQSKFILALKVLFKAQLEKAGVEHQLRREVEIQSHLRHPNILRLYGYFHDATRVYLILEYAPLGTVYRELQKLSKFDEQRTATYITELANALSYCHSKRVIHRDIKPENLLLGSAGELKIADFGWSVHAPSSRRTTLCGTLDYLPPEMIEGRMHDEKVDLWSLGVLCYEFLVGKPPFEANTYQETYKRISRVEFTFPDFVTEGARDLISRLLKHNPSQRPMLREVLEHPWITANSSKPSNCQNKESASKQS

| SMILES | IC50 (TYK2 (h)) [nM] | IC50 (JAK1 (h)) [nM] | IC50 (JAK2 (h)) [nM] | half-life at 5 μM [2, 4] [min] | CLint scaled at 5 μM [2, 5] [mL/min/kg] | IC50 (JAK3 (h)) [nM] | half-life at 5 μM [1, 6] [min] | CLint scaled at 5 μM [1, 7] [mL/min/kg] | half-life at 5 μM [2, 8] [min] | CLint scaled at 5 μM ([2]; pH 7.4, Human liver microsomes) [mL/min/kg] | Clearance (CL) after iv dosing [3] [mL/min/kg] | F [3] [%] | AUC(0-t) [3] [ng·h/mL] | half-life [3] [min] | Vd [3] [L/kg] | IC50 (FLT3 (h)) [nM] | IC50 (Aurora-A (h)) [nM] | further results |
| --- | --- | --- | --- | --- | --- | --- | --- | --- | --- | --- | --- | --- | --- | --- | --- | --- | --- | --- |
| Cn1cc(Nc2ncc(Cl)c(NC3CCC4(CC3)CCN(C(=O)CC#N)C4)n2)cn1 (single isomer, unassigned) [Ex. 14A, 3-(8-((5-chloro-2-((1-methyl-1H-pyrazol-4-yl)amino)pyrimidin-4-yl)amino)-2-azaspiro[4.5]decan-2-yl)-3-oxopropanenitrile] | 1 | 0.8 | 5 | 203 | 8.55 | 39 |  |  |  |  |  |  |  |  |  |  |  | T1/2 ([1]; Rat liver microsomes 0.5 mg protein/mL, compound 5 μM, NADPH 1.0 mM, 37° C.): 10.60 min; CLint ([1]; Rat liver microsomes, in vivo CLint extrapolated): 234.31 mL/min/kg |
| Cn1cc(Nc2ncc(Cl)c(NC3CC4CN(C(=O)CC#N)CC4C3)n2)cn1 (centres unmarked) [Ex. 12, 3-(5-((5-chloro-2-((1-methyl-1H-pyrazol-4-yl)amino)pyrimidin-4-yl)amino)hexahydrocyclopenta[c]pyrrol-2(1H)-yl)-3-oxopropanenitrile] | 7 | 1 | 18 |  |  | 359 | 12 | 208 | 187 | 9.3 | 121 | 39.2 | 143 | 14.4 | 1.75 |  |  |  |
| CC(=O)N1CCC2(CCC(Nc3nc(Nc4cnn(C)c4)ncc3Cl)CC2)CC1 [Ex. 28, 1-(9-((5-chloro-2-((1-methyl-1H-pyrazol-4-yl)amino)pyrimidin-4-yl)amino)-3-azaspiro[5.5]undecan-3-yl)ethanone] | 4 | 0.9 | 4 | 268 | 6.49 | 47 |  |  |  |  | 71 | 63.6 | 251 | 39 | 3.06 | 16 | 22 | half-life at 5 μM ([1]; rat, liver microsomes, pH 7.4, Rat liver microsomes 0.5 mg protein/mL, compound 5 μM, NADPH 1.0 mM, 37° C.): 73.6 min; CLint scaled at 5 μM ([1]; rat, liver microsomes, pH 7.4, Rat liver microsomes, in vivo CLint extrapolated): 33.8 mL/min/kg |
| Cn1cc(Nc2ncc(Cl)c(NC3CC4CN(S(C)(=O)=O)CC4C3)n2)cn1 (centres unmarked) [Ex. 31, 5-chloro-N^2-(1-methyl-1H-pyrazol-4-yl)-N^4-(2-(methylsulfonyl)octahydrocyclopenta[c]pyrrol-5-yl)pyrimidine-2,4-diamine] | 18 | 1 | 12 |  |  | 178 | 13.2 | 188 | 67.2 | 25.9 | 61.2 | 25.7 | 272 | 39.6 | 2.06 | 134 | 4 |  |
| Cc1cc(Nc2ncc(Cl)c(NC3CC4CN(C(=O)CC#N)CC4C3)n2)nn1C (centres unmarked) [Ex. 39, 3-(5-((5-chloro-2-((1,5-dimethyl-1H-pyrazol-3-yl)amino)pyrimidin-4-yl)amino)hexahydrocyclopenta[c]pyrrol-2(1H)-yl)-3-oxopropanenitrile] |  | 5 | 30 |  |  |  | 36.9 | 67.3 | 127 | 13.7 | 39.8 | 83.1 | 422 | 41.4 | 1.19 |  |  |  |
